Results as given in publication PMC7281280, “Is the Way to Fight Cancer Paved with Gold? Metal-Based Carbene Complexes with Multiple and Fascinating Biological Features” (Pharmaceuticals, 2020).

Experiments:
[1] = molecular target: T1, human topoisomerase I (hTopo I) (Homo sapiens, UniProt P11387); assay: Human topoisomerase I relaxation assay; assay type: biochemical; conditions: 1 μM
T1 construct: purchased TopoGEN, Port Orange, FL, USA
T1 sequence (P11387 1-765): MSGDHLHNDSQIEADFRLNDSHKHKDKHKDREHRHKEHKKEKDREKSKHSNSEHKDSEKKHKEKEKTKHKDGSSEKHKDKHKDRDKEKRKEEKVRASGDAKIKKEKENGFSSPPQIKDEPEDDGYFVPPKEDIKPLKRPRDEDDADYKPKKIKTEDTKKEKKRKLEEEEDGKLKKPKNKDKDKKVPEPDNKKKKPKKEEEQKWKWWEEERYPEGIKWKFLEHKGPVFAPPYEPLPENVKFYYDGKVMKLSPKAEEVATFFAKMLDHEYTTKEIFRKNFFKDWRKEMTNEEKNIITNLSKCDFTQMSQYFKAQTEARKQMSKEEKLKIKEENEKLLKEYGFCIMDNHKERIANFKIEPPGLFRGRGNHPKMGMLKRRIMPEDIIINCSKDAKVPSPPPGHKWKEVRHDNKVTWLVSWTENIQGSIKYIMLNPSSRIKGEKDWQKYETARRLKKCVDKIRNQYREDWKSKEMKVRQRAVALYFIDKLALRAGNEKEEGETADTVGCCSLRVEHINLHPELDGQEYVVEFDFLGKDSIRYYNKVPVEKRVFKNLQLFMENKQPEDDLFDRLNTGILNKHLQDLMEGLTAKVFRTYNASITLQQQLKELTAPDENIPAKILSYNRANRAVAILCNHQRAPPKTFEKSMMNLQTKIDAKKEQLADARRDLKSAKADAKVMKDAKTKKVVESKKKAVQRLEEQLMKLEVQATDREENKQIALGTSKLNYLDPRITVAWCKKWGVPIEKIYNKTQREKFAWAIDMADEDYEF
Protocol: Topoisomerases are essential enzymes involved in DNA metabolism, because of their ability to cause temporary DNA strand breakage, and tightly involved, if overexpressed, in cancer development.
hTopo I relaxation assays have been performed in a final volume of […], as reported by Iacopetta et al., incubating […] of supercoiled plasmid pHOT1 in Tris-EDTA (TE) buffer (TopoGEN, Port Orange, FL, USA) with tested compounds and recombinant hTopo I (2 units) (TopoGEN, Port Orange, FL, USA) for 1h at 37 °C. The obtained solution has been loaded in a 1% agarose gel containing 1× Tris-acetate-EDTA (TAE) buffer without ethidium bromide (EB). Agarose gel has been stained using 1× TAE buffer with EB ([…]) for 30 min and after washed with distilled water for 15 min. At the end, it has been visualized by using a ultraviolet (UV) transilluminator. The experiment was performed in triplicate.
Figure 7 hTopoI assay.

[2] = test system: tubulin; assay: In vitro tubulin-polymerization assay (turbidity at 350 nm); assay type: biochemical; conditions: 10 µM
Protocol: Tubulin-polymerization inihibition was measured using in vitro Tubulin-Polymerization Assay Kit purchased fromEMD Millipore Corporation. Polymerization reactions occur in 70 µL final volumes, of which 60 µL is the 60 µM tubulin in 1 × PB-GTP and 10 µL is the test substance dissolved in 1 × PB-GTP. […] These reactives were combined in 96-well plate on ice. After the plate was transferred into the spectrophotometer pre-warmed at 37 °C and the turbidity variation was measured every 30 s at 350 nm for 90 min. The plate was shaked for 10 s before each measurement. Turbidity (absorbance) readings were used to calculate the extent of polymerization [% inhibition = (1−A350 sample/A350 control) × 100].
Figure 4 Tubulin-polymerization assay. […] Two positive control molecules, Paclitaxel and Vinblastine, were used as tubulin-stabilizing and tubulin-destabilizing agents, respectively. DMSO was used as a negative control. Assembly of tubulin into microtubules was determined by measuring the turbidity at 350 nm for 3600 s at 37 °C. All the compounds were used at a concentration of 10 μM.

[3] = test system: HeLa cells; assay: Immunofluorescence of microtubules, HeLa; assay type: cell-based, human; conditions: at IC50 value, 24 h
Protocol: Cells were grown on glass coverslips in full media, then serum-deprived for 24 h and exposed to compounds for 24 h (concentration equal to its IC50 value). Then, the cells after PBS-washed, were fixed with cold methanol (15 min/−20 °C) and incubated with primary antibody, diluted in blocking solution (4 °C/overnight), as previously described. The mouse anti-β-Actin (69879) and the rabbit anti-β tubulin (9104) were purchased from Santa Cruz Biotechnology and used at 1:100 dilution. Coverslips were then washed 3 times with PBS, then fixed cells were incubated with the secondary antibody Alexa Fluor® 568 conjugate goat-anti-mouse and Alexa Fluor® 488 conjugate goat-anti-rabbit (1:500, Thermo Fisher Scientific, Waltham, MA, USA). Nuclei were stained using DAPI (Sigma–Aldrich, Mila, Italy) for 10 min at a concentration of 0.2 μg/mL then washed 3 times with PBS. Fluorescence was detected using a fluorescence microscope (Leica DM 6000). LAS-X software was used to acquire and process all images.
Figure 6 Immunofluorescence studies. HeLa cells were treated with AuL4, Vinblastine, Paclitaxel (used at their IC50 values) or with a vehicle (CTRL) for 24 h. After treatment, the cells were methanol fixed, incubated with primary and secondary antibodies, stained with DAPI and observed and imaged under the inverted fluorescence microscope at 20× magnification (see Materials and methods). […] Panels A: DAPI, excitation/emission wavelength 350 nm/460 nm; panels B: β-tubulin (Alexa Fluor® 488) excitation/emission wavelength 490 nm/515 nm; panels C show a merge. Representative fields are shown.

[4] = molecular target: T2, human topoisomerase II (hTopo II) (Homo sapiens, UniProt P11388); assay: Human topoisomerase II decatenation assay; assay type: biochemical; conditions: 1 μM
T2 construct: purchased topoGEN, Port Orange, FL, USA
Protocol: Decatenated and linear kDNA (Figure 8, lanes 1 and 2) are used as markers.
hTopo II decatenation assays were performed in a final volume of […], as reported by Iacopetta et al., using […] of kinetoplast DNA (kDNA) (topoGEN, Port Orange, FL, USA), tested compounds and 3 units of hTopo II (topoGEN, Port Orange, FL, USA). The reaction products were loaded in an agarose gel with EB. At the end, the gel was washed with distilled water and analyzed using a UV transilluminator. The experiment was repeated three times.
Lane 1 and 2, decatenated and linear kDNA, respectively.

T2 sequence (P11388 whole entry): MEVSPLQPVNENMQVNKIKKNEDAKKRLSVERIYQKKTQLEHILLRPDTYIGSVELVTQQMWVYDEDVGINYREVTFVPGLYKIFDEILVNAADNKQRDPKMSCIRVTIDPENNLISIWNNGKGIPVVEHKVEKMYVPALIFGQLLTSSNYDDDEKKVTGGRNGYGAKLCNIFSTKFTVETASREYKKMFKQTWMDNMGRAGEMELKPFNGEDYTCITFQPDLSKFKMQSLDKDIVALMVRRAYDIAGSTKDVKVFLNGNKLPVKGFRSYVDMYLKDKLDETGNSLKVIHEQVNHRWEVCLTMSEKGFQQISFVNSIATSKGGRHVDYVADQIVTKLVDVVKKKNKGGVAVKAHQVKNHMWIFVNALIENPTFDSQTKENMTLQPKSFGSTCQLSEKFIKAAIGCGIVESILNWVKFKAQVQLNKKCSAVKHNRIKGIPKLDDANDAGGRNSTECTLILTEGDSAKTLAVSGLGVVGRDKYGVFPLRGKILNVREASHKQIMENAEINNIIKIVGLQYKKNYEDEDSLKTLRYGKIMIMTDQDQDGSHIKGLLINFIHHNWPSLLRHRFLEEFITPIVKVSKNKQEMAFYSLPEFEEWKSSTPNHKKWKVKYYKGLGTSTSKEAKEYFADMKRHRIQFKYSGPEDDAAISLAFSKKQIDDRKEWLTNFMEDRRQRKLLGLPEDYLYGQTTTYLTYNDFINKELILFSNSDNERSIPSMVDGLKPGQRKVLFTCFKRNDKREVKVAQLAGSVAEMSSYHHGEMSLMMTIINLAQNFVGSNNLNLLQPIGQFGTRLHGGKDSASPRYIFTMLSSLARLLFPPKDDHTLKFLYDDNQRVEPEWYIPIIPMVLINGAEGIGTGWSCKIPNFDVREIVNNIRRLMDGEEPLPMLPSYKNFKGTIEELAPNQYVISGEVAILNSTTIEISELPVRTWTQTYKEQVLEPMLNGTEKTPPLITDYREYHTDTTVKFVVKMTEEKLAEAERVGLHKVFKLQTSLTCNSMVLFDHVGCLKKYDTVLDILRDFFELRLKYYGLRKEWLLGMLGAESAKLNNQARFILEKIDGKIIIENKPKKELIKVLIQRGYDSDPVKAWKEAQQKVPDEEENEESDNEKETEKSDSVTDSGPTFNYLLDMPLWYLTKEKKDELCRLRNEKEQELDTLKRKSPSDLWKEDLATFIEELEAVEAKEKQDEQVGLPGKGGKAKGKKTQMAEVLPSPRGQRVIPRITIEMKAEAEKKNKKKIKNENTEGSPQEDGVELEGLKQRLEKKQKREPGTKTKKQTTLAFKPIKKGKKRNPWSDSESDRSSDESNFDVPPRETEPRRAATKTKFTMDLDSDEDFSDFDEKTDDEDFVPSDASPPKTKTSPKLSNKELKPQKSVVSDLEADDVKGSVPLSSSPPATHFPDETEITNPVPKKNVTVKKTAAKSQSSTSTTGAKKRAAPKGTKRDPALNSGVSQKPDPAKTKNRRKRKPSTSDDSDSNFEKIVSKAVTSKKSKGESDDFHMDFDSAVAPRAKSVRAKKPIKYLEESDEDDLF

C[n+]1c(Cl)c(Cl)n(C2CCCC2O)[c]1[Au-][c]1n(C2CCCC2O)c(Cl)c(Cl)[n+]1C.[Cl][Au-][Cl] (racemic) [AuL4, bis-[4,5-dichloro-(N-methyl-N’(cyclopentane-2ol)-imidazole-2-ylidine)gold(I)]^+[dichloro-gold]^−]
inhibition of hTopo I supercoil relaxing activity [1]: totally inhibition | effect on tubulin-polymerization reaction [2]: seems not to hamper the tubulin-polymerization reaction | final optical density value at 350 nm (OD350) ([2]; 37 °C, vehicle (DMSO) about 0.43): slightly higher than that of DMSO reaction | effect on microtubule network, HeLa [3]: paclitaxel-like behavior | inhibition of hTopo II decatenation activity [4]: total blockade of hTopoII activity
